Measurements published in article PMC9000710, “Synthesis and Hemostatic Activity of New Amide Derivatives” (Molecules, 2022).
“Also recorded” adds a separate entry of the source. Where a name gives a salt, the structure may show the parent alone. Where a SMILES comes first, the peptide text is derived from it.

What was measured:
Format in all cases: biochemical
human blood plasma [1] = assay: Clot formation and fibrinolysis (CFF) assay; details: for Amax (maximum of fibrin clot absorbance at 360 nm) / VmaxC (of Fibrin Polymerization) / VmaxF (of Fibrin Clot Lysis): control plasma assumed as 100%, mean ± SD, n = 5–7; for effect on fibrin polymerization (VmaxC) in words: tested at 10, 25, 50 mg/L
Description: The CFF assay enables analysis of both the blood plasma coagulation process and fibrinolysis efficiency. The thrombin enzyme in the reagent mixture initiates blood plasma fibrinogen polymerization, leading to an increase in absorbance in the sample until the maximal absorbance (Amax) is attained. The fibrinolytic activity of blood plasma is induced by the tissue-type plasminogen activator (t-PA). The activation of fibrinolysis in the tested samples leads to fibrin clot degradation and decreases the absorbance to the baseline.
Figure 11 An exemplary curve of blood plasma coagulation and clot lysis recorded during the clot formation and fibrinolysis (CFF) assay. The first step in the CFF test involves activation of the blood plasma coagulation cascade and fibrin clot formation (1). It is characterized by the maximal velocity of the fibrin polymerization parameter (VmaxC). The maximal absorbance (Amax) peak corresponds to the fibrin stabilization phase and is an indicator of fibrin clot thickness (2). The third step of the CFF assay covers the activation of fibrinolytic mechanisms and fibrin clot degradation (3) and is described by the maximal velocity of clot lysis (VmaxF).
Thrombin was purchased from BioMed (Lublin, Poland). A tissue-type plasminogen activator (Actilyse®) was purchased from Boehringer Ingelheim, Ingelheim am Rhein, Germany. Kinetic measurements were executed using a SpectrostarNano microplate spectrophotometer (BMG LabTech, Ortenberg, Germany).
Measurements were performed using a kinetic model, as described in our previous work. Briefly, blood plasma was preincubated with the examined substances (at final concentrations of 10, 25, and 50 mg/L) for 15 min at 37 °C. Then, 100 μL of blood plasma was added to microtiter plate wells, which was followed by 200 μL of the reagent mixture (0.75 U/mL thrombin, 225 ng/mL t-PA and 7.5 mM CaCl2) suspended in tris-buffered saline (0.05 M TBS, 0.9% NaCl; pH 7.4). Measurements of absorbance changes were started immediately and continued for 60 min at 37 °C, λ = 360 nm. The following parameters were used to determine the effects of the examined substances on the coagulation and fibrinolytic properties of the blood plasma: the maximal velocity of fibrinogen polymerization (VmaxC), which is an indicator of the plasma coagulation efficiency; the maximal absorbance (Amax), which is an indicator of the fibrin clot stabilization and its thickness; the maximal velocity of clot lysis (VmaxF), which is an indicator of blood plasma fibrinolytic activity.

human blood plasma [2] = assay: Prothrombin time (PT) clotting assay
Experimental: (§1) Human blood plasma was isolated from fresh buffy coats (collected onto the citrate-dextrose solution—ACD) purchased from the Regional Centre of Blood Donation and Blood Treatment in Lodz, Poland. In the isolation procedure, the buffy coats (60 mL units) were divided into volumes of 10 mL and centrifuged (4000 rpm/15 min) in 15 mL tubes. Next, 1 mL solutions of each amide 1–8 were prepared in distilled water at concentrations of 10, 25, and 50 mg/L. Then, 450 μL of plasma and 50 μL of each amide at the tested concentrations were placed into 1.5 mL vials. The vials were vortexed (Vortex Biosan V-1 plus), incubated at 37 °C on a thermoblock (Dry Block Thermostat Biosan TDB-120), and analyzed using a Kselmed K-3002 OPTIC coagulometer (Grudziądz, Poland), based on the manufacturer’s protocols (described below). The control sample was native blood plasma, untreated with any of the examined substances.
(§2) Fifty microliters of control plasma and plasma samples treated with the amides were transferred to measuring cuvettes and placed in the thermoblock module (37 °C) of a coagulometer (KSELMED, K-3002 Optic). Then, 100 μL of Dia-PT reagent (DIAGON Kft. Hungary; cat. no. 81100) was added. Measurements were started immediately.

human blood plasma [3] = assay: Thrombin time (TT) clotting assay
Experimental: as §1
Both 100 μL of control plasma and plasma samples treated with the amides were transferred to measuring cuvettes, which were placed in the thermoblock module (37 °C) of the coagulometer (KSELMED K-3002 Optic). Then, 100 μL of thrombin solution (4.5 U/mL, in 0.9% NaCl; Biomed, Lublin, Poland) was added to the cuvette. Measurements were started immediately.

human blood plasma [4] = assay: Activated partial thromboplastin time (aPTT) clotting assay; details: for aPTT, effect versus control in words: tested at 10, 25, 50 mg/L
Experimental: as §1
as §2, with “of the” for “of a”, “Then, 50” for “Then, 100”, “of Dia-APTT” for “of Dia-PT”, “no. 72048) was added. The mixture was incubated for 180 s at 37 °C. Finally, 50 μL of reagent Dia-CaCl2 (DIAGON Kft. Hungary; cat. no. 41192)” for “no. 81100)”

Compound | Amax (maximum of fibrin clot absorbance at 360 nm) (human blood plasma [1]; 10 mg/L) [%] | VmaxC (of Fibrin Polymerization) (human blood plasma [1]; 10 mg/L) [%] | VmaxF (of Fibrin Clot Lysis) (human blood plasma [1]; 10 mg/L) | Amax (maximum of fibrin clot absorbance at 360 nm) (human blood plasma [1]; 25 mg/L) [%] | VmaxC (of Fibrin Polymerization) (human blood plasma [1]; 25 mg/L) [%] | VmaxF (of Fibrin Clot Lysis) (human blood plasma [1]; 25 mg/L) | Amax (maximum of fibrin clot absorbance at 360 nm) (human blood plasma [1]; 50 mg/L) [%] | VmaxC (of Fibrin Polymerization) (human blood plasma [1]; 50 mg/L) [%] | VmaxF (of Fibrin Clot Lysis) (human blood plasma [1]; 50 mg/L) | effect on fibrin polymerization (VmaxC) in words (human blood plasma [1]) | further results
NCC(=O)NCC(=O)O [Amide 5, Glycylglycine hydrochloride] (H-Gly-Gly-OH) | 106.44 ± 1.78 | 105.80 ± 2.97 | 90.08 ± 13.68% | 107.12 ± 4.65 | 105.88 ± 3.76 | 85.12 ± 16.98 % | 113.43 ± 7.86 | 109.83 ± 1.46 | 89.46 ± 10.48 % | Mild pro-coagulant effects | procoagulant activity judged from VmaxC and Amax, in words (human blood plasma [1]; among the tested compounds): most evident procoagulant activity; Amax parameter, effect in words (human blood plasma [1]; full range of tested concentrations (10–50 µg/mL)): significantly higher; PT Time [% of Control] (human blood plasma [2]; c 10 mg/L): 95.0 ± 10.5 % of Control; PT Time [% of Control] (human blood plasma [2]; c 25 mg/L): 92.0 ± 8.5 % of Control; PT Time [% of Control] (human blood plasma [2]; c 50 mg/L): 93.0 ± 8.3 % of Control; TT Time [% of Control] (human blood plasma [3]; c 10 mg/L): 99.1 ± 6.1 % of Control; TT Time [% of Control] (human blood plasma [3]; c 25 mg/L): 99.0 ± 4.7 % of Control; TT Time [% of Control] (human blood plasma [3]; c 50 mg/L): 97.8 ± 3.3 % of Control; aPTT Time [% of Control] (human blood plasma [4]; c 10 mg/L): 98.8 ± 5.8 % of Control; aPTT Time [% of Control] (human blood plasma [4]; c 25 mg/L): 101.1 ± 4.9 % of Control; aPTT Time [% of Control] (human blood plasma [4]; c 50 mg/L): 100.8 ± 2.6 % of Control
NC[C@H]1CC[C@H](C(=O)O)CC1 [TA, trans-4-(aminomethyl)cyclohexane carboxylic acid, reference compound] | 106.67 ± 3.79 | 101.38 ± 7.89 | total inhibition | 105.87 ± 6.23 | 104.75 ± 9.98 | total inhibition | 106.64 ± 4.65 | 104.85 ± 12.06 | total inhibition | did not influence | prothrombin time, effect versus control in words (human blood plasma [2]; concentration not specified (10, 25, 50 mg/L tested), listed as tranexamic acid): slightly shortened; also recorded: slightly but statistically significantly reduced; prothrombin time, effect versus control in words (human blood plasma [2]; two lower concentrations (10 and 25 mg/L)): decreased; TT, effect versus control in words (human blood plasma [3]; all used concentrations (10, 25, 50 mg/L)): no effects; aPTT, effect versus control in words (human blood plasma [4]): significantly decreased; aPTT, effect versus control in words (human blood plasma [4]; listed as tranexamic acid): slightly shortened
